According to patent publication US10758609B2, “Cross-reactive T-cell epitopes of HIV, SIV, and FIV for vaccines in humans and cats” (priority 2015, dated 2020):
Residues, ends and D or L forms follow the SMILES beside them.

Assays:
[1] = test system: CD4^+ T cells from HIV^+ subjects; conditions: HIV-1 peptides; HIV+ human subjects
Description: The overlapping peptide pools of FIV and HIV-1 structural and enzyme proteins were used to stimulate the […] (PBMC) and the T cells from HIV^+ subjects as previously described for epitope mapping of HIV-1 and FIV p24 and reverse transcriptase (RT) (Sanou et al., 2013; Roff et al., 2015). The individual peptides in those peptide pools with positive responses to either interferon-γ (IFNγ) production and/or T-cell proliferation were determined with IFNγ ELISpot analysis and CFSE-based CD3^+CD4^+ and CD3^+CD8^+ T-cell proliferation analyses followed by the FACS-based intracellular staining (ICS) for cytolysin (perforin) and cytotoxin (granzyme A [GrzA] and GrzB) (Sanou et al., 2013; Roff et al., 2015). Besides viral p24 and RT proteins, the identical approach was used to identify anti-HIV/FIV T-cell epitopes on viral matrix (MA), nucleocapsid (NC), protease (PR), RNAase, integrase (IN), surface envelope (SU Env), and transmembrane envelope (TM Env) (FIG. 12).
Since our goal is to develop HIV vaccine for human use, the HIV peptides (Table 10) counterpart of the cross-reactive FIV peptides shown in Table 9 were tested with PBMC and T cells from HIV^+ subjects. The immune functions analyzed were human IFNγ production by ELISpot, cytolysin/cytotoxin production by ICS, and CFSE-based proliferation of CD3^+CD4^+ and CD3^+CD8^+ T cells from HIV^+ subjects (Table 10, the first set of results). In addition, the Los Alamos National Laboratories (LANL) database was used to identify the HLA allele(s) of the HIV epitope sequence with CTL activity that can exist within the sequence of the conserved counterpart HIV peptide (Table 9, LANL CTL). The bold HLA class-I supertypes and the bold 2-digit alleles are those on the “Optimal CD8^+ CTL Epitopes” list and those without bold are alleles for potential CTL epitope. […] The HLA class II such as HLA-DRB1 has yet to be fully classified into supertypes, and therefore the 4-digit resolution nomenclatures for the HLA-DRB1 alleles are shown.
The counterpart HIV-1 peptides of the FIV peptides were also tested for immunogenicity using PBMC and T cells from HIV^+ human subjects. […] The HRT7-1 and HRT7-2 were also tested with cells from HIV^+ subjects on ART. The threshold for positive IFNγ ELISpot response is ≥75 spot-forming units (SFU) per 10^6 PBMC. The threshold for CFSE-based CD4^+ (CD4^+ T) and CD8^+ (CD8^+ T) T-cell proliferation is ≥2% CD4^+ T-cell CFSE^low or CD8^+ T-cell CFSE^low. The threshold of intracellular cytokine staining (ICS) of FACS-based cytolysin (perforin) and cytotoxins (granzymes A and B) in CD4^+ T cells (CyCD4) and CD8^+ T cells (CyCD8) is ≥0.2%. […] The nine HIV-1 peptides in black are the counterpart FIV peptides used in the current MAP vaccine trial, whereas the 13 peptides in blue were not.

[2] = test system: feline CD3^+CD8^+ T cells; assay: CFSE-based feline CD3+CD8+ T-cell proliferation; parameters: species or system cat; conditions: for CD8, frequency of responders: FIV epitope peptide; for CD8, frequency of responders / CD8^+ T (T-cell proliferation), frequency of responders: FIV-vaccinated cats; for CD8^+ T (T-cell proliferation), frequency of responders: FIV peptides; for % CD8+ T-cell CFSE^low over % CD4+ T-cell CFSE^low ratio (CD8/CD4 response ratio): cats of Group 1, MAP Vaccine Trial 1 (FIG. 3)
Description: (§1) Carboxyfluorescein diacetate succinimide ester (CFSE)-proliferation was performed according to the manufacturer's protocol (Invitrogen, Grand Island, N.Y.) and processed using a previously described modification. The modification consisted of 2.5×10^5 CFSE-labeled feline PBMC stimulated for 5 days (37° C., 5% CO2) with 4 μg/mL peptide in culture media (RPMI medium 25 µg/mL gentamycin, and 10% heat-inactivated fetal bovine serum (FBS)). Peptide pools consisted of 3-5 overlapping peptides of 4 μg/mL each. The antibodies used for flow cytometry based proliferation analysis consisted of murine anti-feline (Fe) CD3 monoclonal antibody (MAb clone kindly provided by Drs. Yorihiro Nishimura and Takayuki Miyazawa; described in [32]) combined with secondary goat anti-mouse IgG3-APC/CY7 MAb (SouthernBiotech, Birmingham, Ala.; Cat#1100-19); and murine anti-FeCD4-PE MAb (SouthernBiotech, Cat#8130-09); and murine anti-FeCD8 MAb (MAb clone kindly provided by Dr. Nazareth Gengozian, described in [33]) with secondary goat anti-mouse IgG2a-PE/CY7 (Southern Biotech, Cat#1080-17). The murine anti-B220-APC MAb for detecting feline B cells (SouthernBiotech, Cat#1665-11) and previously described MAbs for CFSE were used for FACS phenotyping. Both FACS phenotyping and CFSE-proliferation analyses were performed with BD LSRII and FACSDiva™ Software (BD Biosciences, San Jose, Calif.). The final value for each sample was derived after subtraction of the average value of the media controls using a positive threshold of ≥1 CFSE^low.
(§2) Concurrently, the overlapping peptide pools of FIV structural/enzyme proteins were used to stimulate PBMC and T cells from FIV-vaccinated cats. These cats were vaccinated with prototype dual-subtype FIV vaccine which was the prototype to our commercial FIV vaccine (Coleman et al., 2014). The feline assays (Example 1) equivalent to those of human assays (Sanou et al., 2013; Roff et al., 2015) were used except for ICS analysis. In place of ICS for cytolysin/cytotoxins, IL2 ELISpot analysis was performed. […] The results for FIV-vaccinated cats included IFNγ and IL2 productions and CD3^+CD4+ and CD3^+CD8^+ T-cell proliferation (Table 9, the second set of results).
(§3) Carboxyfluorescein diacetate succinimide ester (CFSE)-proliferation analysis was according to the manufacturer's protocol (Invitrogen-Fisher, Carlsbad, Calif.) and processed as previously described (Roff et al. (2015)) using the following modifications: anti-feline CD3 antibody ((clone NZM1), a generous gift from T. Miyazawa (Univ. of Tokyo, Japan)) in combination with APC-conjugated anti-mouse IgG3 (Southern Biotech, Birmingham, Ala.), PE-conjugated anti-feline CD4 antibody (Southern Biotech), and anti-feline CD8 antibody (gift from N. Gengozian, University of Tennessee (Gengozian et al. (1997))) in combination with PE/Cy7-conjugated anti-mouse IgG2b (Southern Biotech) to detect the proliferation of feline CD3^+CD4+ T cells and feline […]. All results shown in the figures (FIGS. 7A-1, 7B-1, 7A-2, 7B-2, 7A-3, 7B-3) are after subtracting the average value of each results from all control cats. The threshold of CFSE proliferation is ≥0.5 CFSE^low. […]

[3] = test system: feline CD3^+CD4^+ T cells; assay: CFSE-based feline CD3+CD4+ T-cell proliferation; parameters: species or system cat; conditions: FIV-vaccinated cats; for CD4, frequency of responders: FIV epitope peptide; for CDC4^+ T (T-cell proliferation), frequency of responders: FIV peptides
Description: as §1, §2, §3

[4] = test system: PBMC from FIV-vaccinated cats; assay: Feline IL2 ELISpot of PBMC from vaccinated cats; assay type: cell-based, cat
Description: (§4) IFNγ and IL2 ELISpot analyses were performed using feline IFNγ ELISpot and feline IL2 ELISpot kits (R&D Systems, Cat# SEL764 and SEL1890) as described. The threshold is defined as ≥50 spot forming units (SFU) per 1×10^6 PBMC when counted with MVS ELISpot Reader (MVS Pacific, LLC). Each result is an average of the duplicate samples after subtraction of the average value of the media controls.
as §2
(§5) The feline IFNγ and L2 ELISpot analyses of PBMC to FIV MAPs and peptides were performed as previously described (Abbott et al. (2012)) using feline IFNγ modular kit (R&D Systems, Minneapolis, Minn.) and feline IL2 modular kit (R&D Systems). All results shown in the figures (FIGS. 8A-1, 8B-1, 8A-2, 8B-2, 8A-3, 8B-3) are after subtracting the average value of the results from all control cats.
(§6) The second parameter evaluated was the ability of the peripheral blood mononuclear cells (PBMC) from vaccinated and control cats to produce IL2 and interferon-γ (IFNγ) proteins in responses to FIV MAPs and peptides (FIGS. 8A-1, 8A-2, 8A-3, 8B-1, 8B-2, 8B-3) using feline IL2 and IFNγ ELISpot assays (Aranyos et al. (2016); Abbott et al. (2012)). IL2 enhances the proliferation of FIV-specific CD4^+ T cells and CD8^+ T cells. IFNγ is known enhance the FIV-specific CTL activities in vaccinated cats (Abbas et al. (2015)).

[5] = test system: PBMC from FIV-vaccinated cats; assay: Feline IFNγ ELISpot of PBMC from vaccinated cats; assay type: cell-based, cat; conditions: for IFNγ production: cats of Group 1, MAP Vaccine Trial 1 (FIG. 3)
Description: as §4, §2, §5, §6

[6] = FIV epitope peptide, FIV-vaccinated cats
[7] = FIV peptides, FIV-vaccinated cats (prototype dual-subtype vaccine)

Molecule	CyCD4 (cytolysin and cytotoxin production of CD4+ T cells), frequency of responders [1]	CD8, frequency of responders [2]	CD8^+ T (T-cell proliferation), frequency of responders [2]	CD4, frequency of responders [3]	CDC4^+ T (T-cell proliferation), frequency of responders [3]	IL2, frequency of responders ([4]; FIV epitope peptide)	IL2, frequency of responders ([4]; FIV peptides)	IFNγ, frequency of responders [5, 6]	IFNγ, frequency of responders [5, 7]	% CD8+ T-cell CFSE^low over % CD4+ T-cell CFSE^low ratio (CD8/CD4 response ratio) [2]	IFNγ production [5]
CSCC[C@H](NC(=O)[C@H](Cc1c[nH]c2ccccc12)NC(=O)[C@H](CC(N)=O)NC(=O)[C@H](CCCCN)NC(=O)[C@@H](NC(=O)[C@H](CCC(=O)O)NC(=O)[C@H](CCC(N)=O)NC(=O)[C@H](CO)NC(=O)[C@H](C)N)C(C)C)C(=O)N[C@H](C(=O)N[C@@H](CCC(=O)O)C(=O)N[C@H](C(=O)N[C@@H](CC(C)C)C(=O)N[C@@H](CC(C)C)C(=O)N[C@H](C(=O)O)C(C)C)[C@@H](C)O)[C@@H](C)O [Hp14-2(15-2)] (H-ASQEVKNWMTETLLV-OH; N-terminus and C-terminus assumed)	++++ (>54% (++++))										
GSSKEIDMAIVTLKV [FMA2]		++++ (>54% (++++))	++++ (>54% (++++))	++++ (>54% (++++))	++++ (>54% (++++))	++ (26%-40% (++))	++ (25.1%-40% (++))	++ (26%-40% (++))	++ (25.1%-40% (++))		
AEVKLYLKQSLSIANA [Fp14-3/4, overlapping peptide of MAP3]			+++ (40.1%-54% (+++))		+++ (40.1%-54% (+++))		++++ (>54% (++++))		+++ (40.1%-54% (+++))	4.8	96 SFU/10^6 PBMC
AAAPVNQMQQAVMPSA [FNC2]		++++ (>54% (++++))	++++ (>54% (++++))	— (0%-1.4% (—))	— (0%-1.4%(—))	++++ (>54% (++++))	++++ (>54% (++++))	++++ (>54% (++++))	++++ (>54% (++++))		
WRMLIDFRVLNKLTDKGA [FRT3-4/5]			— (0%-1.4%(—))		— (0%-1.4%(—))		+++ (40.1%-54% (+++))		— (0%-1.4%(—))		
KFLLDTGADITILN [FPR2]		++++ (>54% (++++))	++++ (>54% (++++))	++++ (>54% (++++))	++++ (>54% (++++))	++++ (>54% (++++))	++++ (>54% (++++))	++++ (>54% (++++))	++++ (>54% (++++))		
GRRYVWCSLPQGWVLSPLIY [FRT7-1/2, overlapping peptide of MAP5]			+++ (40.1%-54% (+++))		+++ (40.1%-54% (+++))		+++ (40.1%-54% (+++))		+++ (40.1%-54% (+++))	11	no IFNγ response
CC[C@H](C)[C@H](N)C(=O)N1CCC[C@H]1C(=O)N[C@H](C(=O)NCC(=O)N[C@@H](CCC(=O)O)C(=O)N[C@H](C(=O)N[C@@H](Cc1ccc(O)cc1)C(=O)N[C@@H](CCCCN)C(=O)N[C@@H](CCCNC(=N)N)C(=O)N[C@@H](Cc1c[nH]c2ccccc12)C(=O)N[C@H](C(=O)N[C@H](C(=O)N[C@@H](CC(C)C)C(=O)NCC(=O)O)[C@@H](C)CC)[C@@H](C)CC)[C@@H](C)CC)C(C)C [Hp9-3(10-3)]	+ (12.5%-25% (+))										
NVAVGVGGKSKKF [FMA1]		++++ (>54% (++++))	++++ (>54% (++++))	+++ (41%-54% (+++))	+++ (40.1%-54% (+++))		— (0%-1.4%(—))	++++ (>54% (++++))	++++ (>54% (++++))		
TLEKRPEILIFVNG [FPR1]		++++ (>54% (++++))	++++ (>54% (++++))	++++ (>54% (++++))	++++ (>54% (++++))	— (0%-1.4% (—))	— (0%-1.4%(—))	— (0%-1.4% (—))	— (0%-1.4%(—))		
